Data: ChEMBL document CHEMBL1201862, “PubChem BioAssay data set” (2004)
Activity calls are given as the source filed them.

Assays:
[1] = biological target: DNA dC->dU-editing enzyme APOBEC-3A (Homo sapiens, UniProt P31941); experiment: Dose Response confirmation of small molecule APOBEC3A DNA Deaminase Inhibitors via a fluorescence-based single-stranded DNA deaminase assay. [Related pubchem assays (depositor defined):AID493011, AID493024]; assay type: functional
[2] = biological target: DNA dC->dU-editing enzyme APOBEC-3G (Homo sapiens, UniProt Q9HC16); assay type: functional;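 further: Dose-response counterscreen measuring inhibition of APOBEC3G DNA deaminase activity, run while confirming APOBEC3A inhibitors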
DNA dC->dU-editing enzyme APOBEC-3G, sequence (Q9HC16 whole entry): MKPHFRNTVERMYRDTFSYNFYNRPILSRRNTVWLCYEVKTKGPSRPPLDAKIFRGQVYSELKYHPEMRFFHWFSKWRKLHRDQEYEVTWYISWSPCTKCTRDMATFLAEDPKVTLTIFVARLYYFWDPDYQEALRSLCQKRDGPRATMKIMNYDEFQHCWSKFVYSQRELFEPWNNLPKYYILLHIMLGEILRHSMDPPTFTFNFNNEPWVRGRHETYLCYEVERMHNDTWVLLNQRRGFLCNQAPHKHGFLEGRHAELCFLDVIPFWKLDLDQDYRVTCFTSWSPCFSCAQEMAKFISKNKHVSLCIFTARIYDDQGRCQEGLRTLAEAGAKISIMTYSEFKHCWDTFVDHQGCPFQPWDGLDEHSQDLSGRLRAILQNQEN

Protein skinhead-1 = biological target: T1, Protein skinhead-1 (Caenorhabditis elegans, UniProt P34707); assay type: functional
T1 sequence (P34707 whole entry): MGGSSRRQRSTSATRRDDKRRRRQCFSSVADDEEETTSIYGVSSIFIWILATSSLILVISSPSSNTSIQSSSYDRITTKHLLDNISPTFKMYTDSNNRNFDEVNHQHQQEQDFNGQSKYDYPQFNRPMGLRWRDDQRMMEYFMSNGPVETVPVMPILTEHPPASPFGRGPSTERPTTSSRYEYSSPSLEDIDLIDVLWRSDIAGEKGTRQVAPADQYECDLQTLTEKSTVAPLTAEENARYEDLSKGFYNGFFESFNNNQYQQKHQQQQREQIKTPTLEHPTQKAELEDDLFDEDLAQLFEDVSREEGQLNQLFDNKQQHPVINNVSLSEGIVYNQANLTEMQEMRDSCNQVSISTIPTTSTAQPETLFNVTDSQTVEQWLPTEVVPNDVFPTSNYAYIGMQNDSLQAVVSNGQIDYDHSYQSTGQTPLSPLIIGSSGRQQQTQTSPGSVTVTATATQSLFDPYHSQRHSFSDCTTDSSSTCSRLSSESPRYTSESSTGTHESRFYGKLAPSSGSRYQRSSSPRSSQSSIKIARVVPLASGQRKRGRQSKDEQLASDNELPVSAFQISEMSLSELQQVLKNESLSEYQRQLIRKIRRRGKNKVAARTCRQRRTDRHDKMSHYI

[3] = biological target: Peroxisome proliferator-activated receptor gamma/Nuclear receptor coactivator 1 (Homo sapiens, UniProt P37231); experiment: (§1) TR-FRET dose response biochemical High Throughput Screening assay for agonists of the steroid receptor coactivator 1 (SRC-1) recruitment by the peroxisome proliferator-activated receptor gamma (PPAR gamma): non-selective agonists. [Related pubchem assays (depositor defined):AID1300, AID1808, AID504735, AID631]; assay type: protein assay
Peroxisome proliferator-activated receptor gamma/Nuclear receptor coactivator 1, sequence (P37231 whole entry): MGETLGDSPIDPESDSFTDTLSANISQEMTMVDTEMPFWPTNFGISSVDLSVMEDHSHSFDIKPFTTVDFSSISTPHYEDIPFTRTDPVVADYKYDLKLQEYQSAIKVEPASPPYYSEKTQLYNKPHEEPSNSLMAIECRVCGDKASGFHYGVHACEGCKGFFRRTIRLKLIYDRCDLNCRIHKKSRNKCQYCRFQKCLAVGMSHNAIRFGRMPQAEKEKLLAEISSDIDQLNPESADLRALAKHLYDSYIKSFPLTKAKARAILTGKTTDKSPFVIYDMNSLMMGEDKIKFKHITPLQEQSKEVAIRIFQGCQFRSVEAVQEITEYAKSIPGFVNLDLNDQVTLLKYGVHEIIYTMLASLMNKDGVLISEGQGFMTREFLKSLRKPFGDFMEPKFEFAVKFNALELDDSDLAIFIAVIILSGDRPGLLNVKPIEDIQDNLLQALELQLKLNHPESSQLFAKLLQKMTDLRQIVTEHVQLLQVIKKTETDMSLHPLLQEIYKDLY
Peroxisome proliferator-activated receptor gamma/Nuclear receptor coactivator 1, sequence (Q15788 whole entry, further chain): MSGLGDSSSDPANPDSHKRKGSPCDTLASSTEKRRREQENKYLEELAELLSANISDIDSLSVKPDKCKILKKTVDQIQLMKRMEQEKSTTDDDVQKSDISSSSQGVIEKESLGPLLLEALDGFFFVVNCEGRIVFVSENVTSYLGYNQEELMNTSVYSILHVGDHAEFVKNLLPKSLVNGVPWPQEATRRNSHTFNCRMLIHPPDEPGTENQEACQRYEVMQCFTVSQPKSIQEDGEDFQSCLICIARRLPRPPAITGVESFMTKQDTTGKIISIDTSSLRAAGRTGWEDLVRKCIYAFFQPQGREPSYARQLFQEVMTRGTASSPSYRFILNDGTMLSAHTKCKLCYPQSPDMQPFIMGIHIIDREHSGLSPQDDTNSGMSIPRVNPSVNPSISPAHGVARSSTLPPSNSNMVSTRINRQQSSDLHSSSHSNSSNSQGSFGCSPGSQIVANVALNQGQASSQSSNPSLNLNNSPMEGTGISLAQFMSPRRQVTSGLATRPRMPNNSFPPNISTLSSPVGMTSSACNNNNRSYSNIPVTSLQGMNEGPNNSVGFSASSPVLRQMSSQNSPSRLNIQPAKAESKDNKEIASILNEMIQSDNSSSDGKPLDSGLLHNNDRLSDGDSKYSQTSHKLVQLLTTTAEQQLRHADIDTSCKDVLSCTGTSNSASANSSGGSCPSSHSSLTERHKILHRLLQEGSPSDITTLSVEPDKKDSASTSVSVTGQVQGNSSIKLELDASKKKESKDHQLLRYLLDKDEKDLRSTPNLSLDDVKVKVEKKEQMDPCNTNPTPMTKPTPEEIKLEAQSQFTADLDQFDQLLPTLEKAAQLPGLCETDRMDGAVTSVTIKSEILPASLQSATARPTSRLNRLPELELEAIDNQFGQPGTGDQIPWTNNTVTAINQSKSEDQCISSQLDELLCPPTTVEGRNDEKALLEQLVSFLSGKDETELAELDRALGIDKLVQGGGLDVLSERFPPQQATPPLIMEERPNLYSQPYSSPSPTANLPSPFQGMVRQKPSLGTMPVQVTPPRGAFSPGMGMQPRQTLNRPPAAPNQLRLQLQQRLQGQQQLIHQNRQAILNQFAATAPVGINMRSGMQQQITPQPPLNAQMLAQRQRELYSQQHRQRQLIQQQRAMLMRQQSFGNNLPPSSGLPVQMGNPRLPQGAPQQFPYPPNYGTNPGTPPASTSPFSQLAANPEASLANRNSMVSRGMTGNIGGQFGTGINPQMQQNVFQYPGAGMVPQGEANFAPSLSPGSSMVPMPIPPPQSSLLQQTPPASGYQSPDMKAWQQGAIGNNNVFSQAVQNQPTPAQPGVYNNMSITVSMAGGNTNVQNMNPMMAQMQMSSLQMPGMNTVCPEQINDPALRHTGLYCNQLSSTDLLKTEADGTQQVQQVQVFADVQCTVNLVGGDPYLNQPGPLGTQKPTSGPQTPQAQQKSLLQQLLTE

[4] = biological target: Peroxisome proliferator-activated receptor gamma/Nuclear receptor coactivator 3 (Homo sapiens, UniProt P37231); experiment: as §1, with “3 (SRC-3)” for “1 (SRC-1)”, “assays: 1301 (Confirmation screen.), 1048 (Primary screen.)]” for “assays (depositor defined):AID1300, AID1808, AID504735, AID631]”; assay type: functional
Peroxisome proliferator-activated receptor gamma/Nuclear receptor coactivator 3, sequence (P37231 whole entry): as the sequence (P37231 whole entry) above
Peroxisome proliferator-activated receptor gamma/Nuclear receptor coactivator 3, sequence (Q9Y6Q9 whole entry, further chain): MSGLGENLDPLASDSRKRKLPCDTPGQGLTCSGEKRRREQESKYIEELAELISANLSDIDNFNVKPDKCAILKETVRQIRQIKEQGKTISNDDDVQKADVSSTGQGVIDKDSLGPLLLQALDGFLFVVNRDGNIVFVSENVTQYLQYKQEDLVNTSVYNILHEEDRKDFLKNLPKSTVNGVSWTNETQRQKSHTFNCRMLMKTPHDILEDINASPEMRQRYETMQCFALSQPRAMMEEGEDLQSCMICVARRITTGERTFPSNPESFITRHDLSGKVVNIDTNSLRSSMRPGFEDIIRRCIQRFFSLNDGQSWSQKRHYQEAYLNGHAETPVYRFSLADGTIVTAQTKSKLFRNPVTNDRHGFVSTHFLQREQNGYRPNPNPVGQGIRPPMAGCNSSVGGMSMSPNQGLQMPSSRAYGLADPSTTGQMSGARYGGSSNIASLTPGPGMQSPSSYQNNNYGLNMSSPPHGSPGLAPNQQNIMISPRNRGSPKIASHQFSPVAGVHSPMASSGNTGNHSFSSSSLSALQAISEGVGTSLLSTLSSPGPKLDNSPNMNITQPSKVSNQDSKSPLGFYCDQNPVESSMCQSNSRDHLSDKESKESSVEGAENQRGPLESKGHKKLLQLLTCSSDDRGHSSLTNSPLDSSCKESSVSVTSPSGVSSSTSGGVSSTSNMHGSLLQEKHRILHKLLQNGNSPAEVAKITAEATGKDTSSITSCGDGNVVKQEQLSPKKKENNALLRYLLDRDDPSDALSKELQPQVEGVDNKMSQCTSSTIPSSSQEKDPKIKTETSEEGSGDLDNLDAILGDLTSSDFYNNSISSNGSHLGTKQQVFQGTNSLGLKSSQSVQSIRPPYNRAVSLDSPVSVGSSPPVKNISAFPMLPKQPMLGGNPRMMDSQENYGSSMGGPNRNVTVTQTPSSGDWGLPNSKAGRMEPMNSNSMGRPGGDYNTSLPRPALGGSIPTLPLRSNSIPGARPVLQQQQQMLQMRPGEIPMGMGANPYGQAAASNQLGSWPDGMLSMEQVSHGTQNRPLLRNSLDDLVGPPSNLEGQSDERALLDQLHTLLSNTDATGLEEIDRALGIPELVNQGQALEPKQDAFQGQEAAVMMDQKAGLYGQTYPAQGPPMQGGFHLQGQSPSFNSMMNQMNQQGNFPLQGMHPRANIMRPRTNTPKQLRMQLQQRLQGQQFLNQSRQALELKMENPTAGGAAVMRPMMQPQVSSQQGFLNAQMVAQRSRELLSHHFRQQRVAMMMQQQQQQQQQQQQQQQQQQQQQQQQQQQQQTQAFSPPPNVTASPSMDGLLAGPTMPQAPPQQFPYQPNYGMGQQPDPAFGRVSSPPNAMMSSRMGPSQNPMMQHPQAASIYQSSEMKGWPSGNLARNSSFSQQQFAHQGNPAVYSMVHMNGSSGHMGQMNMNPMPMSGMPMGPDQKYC

[5] = biological target: Peroxisome proliferator-activated receptor gamma/Nuclear receptor coactivator 2 (Homo sapiens, UniProt P37231); experiment: TR-FRET dose response biochemical High Throughput Screening assay for agonists of the steroid receptor coactivator 2 (SRC-2) recruitment by the peroxisome proliferator-activated receptor gamma (PPAR gamma): non-selective agonists. [Related pubchem assays: 1297, 1032 ]; assay type: functional
Cytochrome P450 2C19 = Cytochrome P450 2C19 (Homo sapiens, UniProt P33261); experiment: Cytochrome panel assay with activity outcomes. Panel member name: p450-cyp2c19 Compounds with AC50 equal or less than 10 uM are considered active; assay type: functional; details: read-out: AC50
[6] = biological target: T2, High affinity choline transporter 1 (Homo sapiens, UniProt Q9GZV3); experiment: CHT inhibitors, dose response, cell-based, 5-point CRC, membrane potential dye (AID 504840); assay type: functional
T2 sequence (Q9GZV3 whole entry): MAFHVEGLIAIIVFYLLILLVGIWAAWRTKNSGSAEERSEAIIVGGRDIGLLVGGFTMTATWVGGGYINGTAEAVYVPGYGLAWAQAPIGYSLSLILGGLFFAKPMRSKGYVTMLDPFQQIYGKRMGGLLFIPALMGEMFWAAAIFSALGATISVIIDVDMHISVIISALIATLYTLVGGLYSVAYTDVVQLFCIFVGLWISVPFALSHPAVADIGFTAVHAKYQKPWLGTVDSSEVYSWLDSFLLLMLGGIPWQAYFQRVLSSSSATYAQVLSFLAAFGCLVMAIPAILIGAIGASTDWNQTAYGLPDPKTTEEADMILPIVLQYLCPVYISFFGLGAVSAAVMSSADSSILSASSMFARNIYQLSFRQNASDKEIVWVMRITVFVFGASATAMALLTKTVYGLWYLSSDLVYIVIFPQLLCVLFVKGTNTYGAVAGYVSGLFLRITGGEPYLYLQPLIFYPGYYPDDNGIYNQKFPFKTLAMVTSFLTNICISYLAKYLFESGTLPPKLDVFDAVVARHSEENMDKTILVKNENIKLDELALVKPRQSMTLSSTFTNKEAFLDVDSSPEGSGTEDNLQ

Cytochrome P450 2D6 = Cytochrome P450 2D6 (Homo sapiens, UniProt P10635);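 further: CYP2D6 member of a cytochrome P450 panel assay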
Cytochrome P450 2D6, sequence (P10635 whole entry): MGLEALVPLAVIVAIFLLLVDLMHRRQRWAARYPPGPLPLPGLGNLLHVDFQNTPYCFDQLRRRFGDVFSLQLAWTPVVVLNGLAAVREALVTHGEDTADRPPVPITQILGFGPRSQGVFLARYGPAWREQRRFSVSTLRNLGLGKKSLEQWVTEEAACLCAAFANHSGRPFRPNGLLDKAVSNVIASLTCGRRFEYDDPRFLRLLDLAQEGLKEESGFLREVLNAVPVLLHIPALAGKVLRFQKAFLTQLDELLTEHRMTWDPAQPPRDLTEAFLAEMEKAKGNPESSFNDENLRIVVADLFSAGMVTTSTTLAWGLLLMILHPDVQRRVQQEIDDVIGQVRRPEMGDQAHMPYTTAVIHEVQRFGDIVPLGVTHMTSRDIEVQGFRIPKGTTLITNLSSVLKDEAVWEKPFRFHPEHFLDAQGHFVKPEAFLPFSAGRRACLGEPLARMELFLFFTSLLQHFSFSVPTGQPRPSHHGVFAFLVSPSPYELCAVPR

Cytochrome P450 1A2 = biological target: T3, Cytochrome P450 1A2 (Homo sapiens, UniProt P05177);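 further: PubChem cytochrome P450 panel assay, CYP1A2 panel member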
T3 sequence (P05177 whole entry): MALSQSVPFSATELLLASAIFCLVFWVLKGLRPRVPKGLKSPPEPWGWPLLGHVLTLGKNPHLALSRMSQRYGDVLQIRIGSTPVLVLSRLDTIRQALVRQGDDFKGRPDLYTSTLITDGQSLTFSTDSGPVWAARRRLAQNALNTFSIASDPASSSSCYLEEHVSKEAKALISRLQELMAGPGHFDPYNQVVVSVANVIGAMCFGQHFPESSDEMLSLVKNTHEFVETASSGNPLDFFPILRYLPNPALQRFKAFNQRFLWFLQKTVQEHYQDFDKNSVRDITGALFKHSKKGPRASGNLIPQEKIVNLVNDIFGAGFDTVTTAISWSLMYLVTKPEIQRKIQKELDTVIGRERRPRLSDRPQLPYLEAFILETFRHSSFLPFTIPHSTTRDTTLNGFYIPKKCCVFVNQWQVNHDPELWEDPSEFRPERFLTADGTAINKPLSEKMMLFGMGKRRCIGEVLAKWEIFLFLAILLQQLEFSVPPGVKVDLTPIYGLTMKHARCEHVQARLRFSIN

Cytochrome P450 3A4 = Cytochrome P450 3A4 (Homo sapiens, UniProt P08684);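 further: CYP3A4 tested as one member of a cytochrome P450 panel screen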
Cytochrome P450 2C9 = Cytochrome P450 2C9 (Homo sapiens, UniProt P11712)
Prothrombin = Prothrombin (Homo sapiens, UniProt P00734); experiment: Thrombin 1536 HTS Dose Response Confirmation. [Related pubchem assays: 1046 (Thrombin 1536 HTS; hits were confirmed in this assay)]; assay type: functional
[7] = biological target: T4, Short transient receptor potential channel 4 (Mus musculus, UniProt Q9QUQ5); experiment: mouse TRPC4 channel inhibitors, dose response, cell-based, HEK293 TRPC4/mu-opioid, Fluo-4 calcium (AID 434942); assay type: functional;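 further: potency of inhibitors blocking the TRPC4 calcium response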
T4 sequence (Q9QUQ5 whole entry): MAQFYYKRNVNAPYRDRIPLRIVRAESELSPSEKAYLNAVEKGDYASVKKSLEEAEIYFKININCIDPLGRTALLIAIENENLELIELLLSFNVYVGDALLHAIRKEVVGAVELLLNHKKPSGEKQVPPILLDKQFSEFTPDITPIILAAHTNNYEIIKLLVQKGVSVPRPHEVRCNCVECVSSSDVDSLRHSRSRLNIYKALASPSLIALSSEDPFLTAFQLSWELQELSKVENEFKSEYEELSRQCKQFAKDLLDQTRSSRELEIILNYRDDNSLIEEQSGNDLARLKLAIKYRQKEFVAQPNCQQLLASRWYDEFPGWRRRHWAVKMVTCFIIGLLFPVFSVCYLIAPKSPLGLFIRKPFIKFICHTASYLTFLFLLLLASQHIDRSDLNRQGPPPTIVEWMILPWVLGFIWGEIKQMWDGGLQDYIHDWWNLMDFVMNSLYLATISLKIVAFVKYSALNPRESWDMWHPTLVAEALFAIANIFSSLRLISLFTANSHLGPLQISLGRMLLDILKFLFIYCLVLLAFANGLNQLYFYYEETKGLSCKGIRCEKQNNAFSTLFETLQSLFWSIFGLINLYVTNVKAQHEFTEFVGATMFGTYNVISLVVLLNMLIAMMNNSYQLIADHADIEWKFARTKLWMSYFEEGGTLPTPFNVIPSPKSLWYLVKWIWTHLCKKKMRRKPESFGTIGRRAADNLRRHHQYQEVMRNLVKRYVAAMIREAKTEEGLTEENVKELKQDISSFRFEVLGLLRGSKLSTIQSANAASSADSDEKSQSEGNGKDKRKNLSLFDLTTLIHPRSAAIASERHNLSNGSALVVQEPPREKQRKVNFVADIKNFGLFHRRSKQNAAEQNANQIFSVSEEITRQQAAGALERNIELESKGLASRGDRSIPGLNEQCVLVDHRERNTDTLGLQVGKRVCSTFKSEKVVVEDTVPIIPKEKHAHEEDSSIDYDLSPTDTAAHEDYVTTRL

cells = assay type: functional

DNA dC->dU-editing enzyme APOBEC-3A, sequence (P31941 whole entry): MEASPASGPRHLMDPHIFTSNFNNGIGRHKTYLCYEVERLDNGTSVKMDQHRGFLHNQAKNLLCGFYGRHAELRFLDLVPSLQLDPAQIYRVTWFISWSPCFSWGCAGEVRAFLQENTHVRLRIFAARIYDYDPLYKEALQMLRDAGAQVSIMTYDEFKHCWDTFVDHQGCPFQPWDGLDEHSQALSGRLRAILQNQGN

SMILES	IC50 [1]	IC50 [2]	EC50 [3]	EC50 [4]	EC50 [5]	further results
O=[N+]([O-])c1ccc2nc(N3CCCC3)sc2c1	5.31 µM (active)	4.86 µM (active)				IC50 (Protein skinhead-1): 39.1 µM (active)
Cn1c(=O)cc(SCC(=O)N2CCC3(CC2)OCCO3)c2ccc(Cl)cc21			> 79.4 µM (inactive)	> 79.4 µM (not active)	> 79.4 µM (not active)	
CCCCn1nc2cc(C(=O)NC3CCCc4ccccc43)ccc2c1OCC (stereo unspecified)						AC50 (Cytochrome P450 2C19): 39.8 µM (inconclusive); IC50 [6]: 12.9 µM (active); AC50 (Cytochrome P450 2D6): 22.4 µM (inconclusive); AC50 (Cytochrome P450 1A2): 39.8 µM (inconclusive); AC50 (Cytochrome P450 3A4): 35.5 µM (inconclusive); AC50 (Cytochrome P450 2C9): 22.4 µM (inconclusive)
N#Cc1ccc(-c2ccc3c(c2)OCO3)nc1SCC(=O)OCc1ccccc1			5.85 µM (active)	20.4 µM (not active)	7.23 µM (active)	
CN(C)c1cc[n+](CC(=O)Nc2ccc(OC(F)F)cc2)cc1	2.44 µM (active)	4.21 µM (active)				
N=c1n(CCO)c2ccccc2n1Cc1ccccc1						IC50 (Prothrombin): > 50 µM (not active); EC50 [7]: 5.31 µM (active)
C[N+]1(C)CCN(c2ccccc2)CC1 [DIMETHYLPHENYLPIPERAZINIUM IODIDE]	1.93 µM (active)	2.62 µM (active)				
Sc1ncnc2sc(-c3ccccc3)cc12			8.82 µM (active)	> 79.4 µM (not active)	34.7 µM (not active)	IC50 (cells): 49.3 µM (active)
CSCCNCc1cn(-c2ccc(F)cc2F)nc1-c1ccccc1C						EC50 [7]: 5.96 µM (active)
